Measured values reported in the CheMixHub ionic liquid set.

Assay: xn = mol fraction of the nth substance listed
Conditions: 101 kPa

CCCCCCCCCCCCCC[n+]1ccccc1.O=C([O-])C(O)c1ccccc1 + NCC(=O)O + O
electrical conductivity [S/m]
Conditions | 303.15 K | 308.15 K | 313.15 K
x1 = 5.26e-06, x2 = 0.001799 | – | 0.00305 | 0.0034
x1 = 6.85e-06, x2 = 0 | – | 0.0034 | 0.0037
x1 = 8.31e-06, x2 = 0.0009002 | – | 0.00385 | 0.0042
x1 = 1.142e-05, x2 = 0.001799 | – | 0.0055 | 0.006
x1 = 1.319e-05, x2 = 0.0009002 | – | 0.0058 | 0.0064
x1 = 1.424e-05, x2 = 0 | – | 0.0065 | 0.0071
x1 = 1.685e-05, x2 = 0.001799 | – | 0.0076 | 0.0084
x1 = 1.735e-05, x2 = 0.0009002 | – | 0.0075 | 0.0082
x1 = 2.12e-05, x2 = 0.001799 | – | 0.0093 | 0.0102
x1 = 2.126e-05, x2 = 0 | – | 0.0093 | 0.0101
x1 = 2.367e-05, x2 = 0.0009002 | – | 0.0099 | 0.0108
x1 = 2.591e-05, x2 = 0.001799 | – | 0.0111 | 0.0122
x1 = 2.811e-05, x2 = 0 | – | 0.0122 | 0.0131
x1 = 2.982e-05, x2 = 0.0009002 | – | 0.0122 | 0.0134
x1 = 3.081e-05, x2 = 0.001799 | – | 0.013 | 0.0143
x1 = 3.46e-05, x2 = 0 | – | 0.0145 | 0.0157
x1 = 3.668e-05, x2 = 0.0009002 | – | 0.0146 | 0.0161
x1 = 3.679e-05, x2 = 0.001799 | – | 0.015 | 0.0166
x1 = 4.108e-05, x2 = 0 | – | 0.0161 | 0.0179
x1 = 4.337e-05, x2 = 0.0009001 | 0.0148 | 0.0165 | 0.0183
x1 = 4.367e-05, x2 = 0.001799 | 0.015 | 0.0168 | 0.0186
x1 = 4.811e-05, x2 = 0 | 0.0161 | 0.0179 | 0.0198
x1 = 4.951e-05, x2 = 0.0009001 | 0.0159 | 0.0178 | 0.0198
x1 = 5.11e-05, x2 = 0.001799 | 0.0166 | 0.0186 | 0.0206
x1 = 5.388e-05, x2 = 0 | 0.0172 | 0.0191 | 0.0211
x1 = 5.602e-05, x2 = 0.0009001 | 0.0171 | 0.0191 | 0.0212
x1 = 5.726e-05, x2 = 0.001799 | 0.0176 | 0.0198 | 0.0219
x1 = 5.982e-05, x2 = 0 | 0.0182 | 0.0202 | 0.0224
x1 = 6.216e-05, x2 = 0.0009001 | 0.0181 | 0.0202 | 0.0224
x1 = 6.361e-05, x2 = 0.001799 | 0.0187 | 0.0209 | 0.0232
x1 = 6.559e-05, x2 = 0 | 0.0192 | 0.0213 | 0.0236
x1 = 6.885e-05, x2 = 0.0009001 | 0.0192 | 0.0214 | 0.0239
x1 = 6.959e-05, x2 = 0.001799 | 0.0197 | 0.0221 | 0.0245
x1 = 7.081e-05, x2 = 0 | 0.02 | 0.0223 | 0.0246
x1 = 7.463e-05, x2 = 0.0009001 | 0.0202 | 0.0225 | 0.0251
x1 = 7.593e-05, x2 = 0.001799 | 0.0207 | 0.0233 | 0.0258
x1 = 7.604e-05, x2 = 0 | 0.0209 | 0.0232 | 0.0258
x1 = 8.023e-05, x2 = 0.0009001 | 0.0211 | 0.0237 | 0.0263
x1 = 8.072e-05, x2 = 0 | 0.0217 | 0.0241 | 0.0266
